From patent US8501792B2, “Treating cancer with desthiazolyl ritonavir” (priority 2008, dated 2013)

Experiments:
ER+ lines = experiment: MTT proliferation assay, ER+ lines (IC90); format: cell-based; details: difference to ritonavir, read-out: IC90 values, amount less than ritonavir
Protocol: M1 inhibition of proliferation of MCF7, T47D and MDA-MB-231 cell lines was studied. Cells (n=2000/well) were seeded in 96 well plates with drug or vehicle (DMSO) on D1 and after 48 h the cell number was determined by MTT assay. Each assay was performed with 8 measurements for each data point (See FIG. 1, wherein graph A corresponds to MCF7, graph B corresponds to T47D, and graph C corresponds to MDA-MB-231).

[1] = tested on: H522 adenocarcinoma non-small cell lung cancer cell; experiment: MTT proliferation assay, H522; format: cell-based; details: 10 to 80 μmol/L, 48 hours, FIG. 18
Protocol: H522 adenocarcinoma non-small cell lung cancer cell proliferation was measured in 96-well plates by a 3-(4,5-dimethylthiazol-2-yl)-2,5 diphenyltetrazolium bromide (MTT) assay that measures reduction of MTT in 96-well plates (see Ohno M, Abe T. J Immunol Methods, 1991 Dec. 15; 145(1-2):199-203). The cells were exposed to 10 to 80 μmol/L ritonavir, M1 or DMSO vehicle for 48 hours and proliferation was subsequently quantified by MTT assay. The MTT was added to the medium at the endpoint and the plate was incubated for 2 hours. The plate was then centrifuged in an Allegra plate centrifuge at 2000 rpm for 5 minutes. The medium was removed, and the pellet was dissolved in 100 μL of DMSO per well. The pellet was dissolved using a gently vibrating platform. The plates were read with a BioTek Synergy plate reader in colorimetric mode at 540 nm. Each assay was performed in octuplicate for each data point.

Purified mammalian Hsp90 = experiment: Hsp90 binding on CM-5 BIAcore chip (surface plasmon resonance); details: RU value versus drug concentration; FIG. 11
Text: Inhibition of Hsp90 can be evaluated by surface plasmon resonance studies of a compound of formula I, using a CM-5 Biacore chip on which Hsp90 (Stressgen, Ann Arbor) has been immobilized. This method can also be used to evaluate the chaperoning activity of a compound of formula I by evaluation of luciferase refolding. See Examples 4 and 9.
Purified mammalian Hsp90 was attached to a CM-5 BIAcore chip through an NHS ester linkage. After attachment of the Hsp90 and blocking the chip with BSA, M1 drug or a 17-AAG control was circulated through a microfluidic circuit and change in refractive index was measured by quantification of the RU value for each drug concentration. In the case of the 17-AAG control the binding was saturable and based on the kon and koff measurements, the KD was estimated to be in the 1 microM range. […] This means that there are significant differences in the binding of M-1 and may indicate alteration of the Hsp90 structure.

CC(C)c1nc(CN(C)C(=O)NC(C(=O)NC(Cc2ccccc2)CC(O)C(N)Cc2ccccc2)C(C)C)cs1 (stereo not drawn) [M1, desthiazolyl ritonavir]
IC90 (ER+ lines): > 30 µM | measured cell proliferation compared to cells exposed to ritonavir or DMSO [1]: lower | binding to Hsp90, saturability (Purified mammalian Hsp90): the binding is not saturable
